The text below walks through data of publication PMC12169614, “Exploring Long Arm Amide-Linked Side Chains in the Design of Antifungal Azole Inhibitors of Sterol 14α-Demethylase (CYP51)” (Journal of Medicinal Chemistry, 2025).

The structures appear in SMILES notation. Read-outs that look alike come from different tables or passages of the source.

One series addresses wild-type CaCYP51 (Candida albicans, UniProt P10613). Put plainly: Reconstituted CYP51 activity assay, wild type. The class given is biochemical, C. albicans. The settings on record: 1 μM CaCyp51, 50 μM lanosterol; duplicate, mean ± SD. As to the method: (§1) The reconstituted CYP51 assay previously described contained 1 μM CaCyp51, 2 μM Homo sapiens cytochrome P450 reductase and 50 μM lanosterol in a final volume of 500 μL. After the addition of azole in DMSO (2.5 μL), reactions were incubated at 37 °C for 10 min prior to initiation by the addition of 100 μL 20 mM β-NADPH-Na4. Sterol substrates and products were extracted with ethyl acetate, derivatized with N,O-bis(trimethylsilyl)-trifluoroacetamide (BSTFA)–trimethylchlorosilane (TMCS) (99:1) in the presence of anhydrous pyridine, and analyzed by GC/MS as described previously. IC50 determinations were performed in duplicate. Nonlinear regression of inhibitor concentration vs normalized response was calculated by GraphPad Prism 10.4.0 for Windows (GraphPad Software, Boston, Massachusetts, USA, www.graphpad.com).

Series [1] deals with T1, CaCYP51 Y132H + K143R (Candida albicans, UniProt P10613, K143R/Y132H). Put plainly: Reconstituted CYP51 activity assay, Y132H + K143R. The class given is biochemical, C. albicans. Conditions: 1 μM CaCyp51, 50 μM lanosterol; duplicate, mean ± SD. As to the method:
as §1

For a further series, the target named is CaCYP51 Y132F (Candida albicans, UniProt P10613, Y132F). The settings on record: footnote b; ref number not given; cited from earlier work.
Chain of CaCYP51 Y132F (P10613 whole entry Y132F): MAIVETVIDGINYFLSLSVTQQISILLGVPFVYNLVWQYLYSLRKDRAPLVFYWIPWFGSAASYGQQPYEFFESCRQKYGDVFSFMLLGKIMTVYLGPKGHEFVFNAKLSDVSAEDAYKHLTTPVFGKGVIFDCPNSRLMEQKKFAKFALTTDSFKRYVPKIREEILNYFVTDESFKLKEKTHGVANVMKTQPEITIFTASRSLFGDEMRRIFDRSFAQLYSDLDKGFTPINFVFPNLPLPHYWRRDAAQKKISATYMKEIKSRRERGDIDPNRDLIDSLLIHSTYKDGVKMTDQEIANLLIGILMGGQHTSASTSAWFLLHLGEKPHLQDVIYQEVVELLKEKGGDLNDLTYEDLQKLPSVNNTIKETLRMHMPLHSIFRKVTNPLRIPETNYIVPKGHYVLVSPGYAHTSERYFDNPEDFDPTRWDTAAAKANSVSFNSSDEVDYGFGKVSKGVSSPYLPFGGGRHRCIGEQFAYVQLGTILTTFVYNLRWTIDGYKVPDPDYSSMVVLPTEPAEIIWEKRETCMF
A further series concerns Y2411 Endog. ScCYP51. Put plainly: MIC80 determination, strain Y2411. It counts as cell-based, S. cerevisiae. The settings on record: Saccharomyces cerevisiae; strain Y2411 Endog. ScCYP51; SD pH 6.8, 30 °C, 48 h. The procedure:
(§2) Cells were seeded at an OD600 nm of 0.005 (1.5 × 10^4 CFU), and the plates were incubated at 30 °C with shaking at 200 rpm for 48 h for S. cerevisiae strains and 24 h for C. albicans . Cell growth was assessed by measuring the OD600 nm using a Synergy 2 multimode plate reader (BioTek Instruments, VT, USA). Each MIC80 was determined using triplicate measurements for pools of 4 clones of each strain in three separate experiments.

A further series concerns Y433 OE CgCDR1. Put plainly: MIC80 determination, strain Y433. It counts as cell-based, S. cerevisiae. The settings on record: Saccharomyces cerevisiae. The procedure:
as §2

The subject of another series is Y2651 OE CYP51 F5 RaCPR. Put plainly: MIC80 determination, strain Y2651. Conditions: Saccharomyces cerevisiae. It counts as cell-based, S. cerevisiae. As to the method:
as §2

For series [2], the system named is Y2746 OE AfCYP51A AfCPR AfERG6. Put plainly: MIC80 determination, strain Y2746. It counts as cell-based, S. cerevisiae. Conditions: Saccharomyces cerevisiae. As to the method: as §2
For the next series, the system named is Y2374 OE CgCYP51. Put plainly: MIC80 determination, strain Y2374. The class given is cell-based, S. cerevisiae. The settings on record: Saccharomyces cerevisiae. The procedure: as §2
For another series, the system named is Y2459 OE CaCYP51 CaCpr. Put plainly: MIC80 determination, strain Y2459. The class given is cell-based, S. cerevisiae. The settings on record: Saccharomyces cerevisiae, 48 h, pH 6.8. As to the method: as §2
In another series the test system is Y1. Put plainly: MIC80 determination, C. albicans clinical isolate Y1. It counts as cell-based. Conditions: Candida albicans, pH 7, 24 h. As to the method: as §2
The test system of the next series is Y2716 OE CpCYP51 Y132F. Put plainly: MIC80 determination, strain Y2716. It counts as cell-based, S. cerevisiae. Conditions: Saccharomyces cerevisiae. The procedure:
as §2

A further series concerns Y611 FHB3. Put plainly: MIC80 determination, C. albicans clinical isolate Y611 FHB3. The class given is cell-based. Conditions: Candida albicans, 24 h, pH 7. As to the method:
as §2

A further series has as its system Y2765 OE CauMDR1. Put plainly: MIC80 determination, strain Y2765. It counts as cell-based, S. cerevisiae. The settings on record: Saccharomyces cerevisiae. The procedure:
as §2

In the next series the test system is Y2767 OE CauCYP51. Put plainly: MIC80 determination, strain Y2767. The class given is cell-based, S. cerevisiae. Conditions: Saccharomyces cerevisiae. As to the method:
as §2

Another series deals with Y71 SC5314. Put plainly: MIC80 determination, C. albicans clinical isolate Y71 SC5314. It counts as cell-based. The settings on record: Candida albicans; C. albicans clinical isolate Y71 SC5314; pH 7, 24 h. As to the method:
as §2

For a further series, the system named is Y2768 OE CauCYP51 Y132F. Put plainly: MIC80 determination, strain Y2768. It counts as cell-based, S. cerevisiae. Conditions: Saccharomyces cerevisiae. As to the method:
as §2

A further series concerns Y610 FHB1. Put plainly: MIC80 determination, C. albicans clinical isolate Y610 FHB1. It counts as cell-based. Conditions: Candida albicans; C. albicans clinical isolate Y610 FHB1 (weakly expresses CaCDR1); pH 7, 24 h. As to the method:
as §2

For the next series, the system named is Y2300 OE ScCYP51. Put plainly: MIC80 determination, strain Y2300. It counts as cell-based, S. cerevisiae. The settings on record: Saccharomyces cerevisiae, 48 h, pH 6.8. The procedure: as §2
A further series relates to Y2513 OE ScCYP51 Y140H. Put plainly: MIC80 determination, strain Y2513. It counts as cell-based, S. cerevisiae. Conditions: Saccharomyces cerevisiae, 48 h, pH 6.8. The procedure: as §2
A further series deals with Y2769 OE CauCYP51 K143R. Put plainly: MIC80 determination, strain Y2769. The class given is cell-based, S. cerevisiae. The settings on record: Saccharomyces cerevisiae. As to the method:
as §2

Another series concerns Y570 OE CaCDR1B. Put plainly: MIC80 determination, strain Y570. It counts as cell-based, S. cerevisiae. Conditions: Saccharomyces cerevisiae, 48 h, pH 6.8. The procedure:
as §2

For series [3], the system named is Y2747 OE AfCYP51B AfCPR AfERG6. Put plainly: MIC80 determination, strain Y2747. The class given is cell-based, S. cerevisiae. The settings on record: Saccharomyces cerevisiae. As to the method: as §2
The next series has as its system C. albicans. Further details: method as in number not given. Conditions: ref number not given; cited from earlier work.
A further series concerns Y2766 OE CauCDR1. Put plainly: MIC80 determination, strain Y2766. It counts as cell-based, S. cerevisiae. The settings on record: Saccharomyces cerevisiae. The procedure:
as §2

For another series, the system named is MCF-10A cells. Put plainly: Viability (CellTiter Blue) assay. The settings on record: 48 h, 10 μM to 1 pM. It counts as cell-based, human. As to the method:
Human epithelial breast cells, MCF-10A, were routinely cultured in DMEM/F-12 (Fisher Scientific, Loughborough, UK) containing 5% heat-inactivated horse serum (ThermoFisher Scientific, UK), 20 ng/mL hEGF (Merck Life Science, Dorset, UK), 500 ng/mL hydrocortisone (Merck Life Science, Dorset, UK) and 10 μg/mL insulin (Merck Life Science, Dorset, UK) under tissue culture conditions (37 °C, 5% CO2 in a humidified incubator). Cells were passaged upon reaching confluency using 0.25% Trypsin/EDTA (Fisher Scientific, Loughborough, UK) for a maximum of 15 passages from defrosting. […].
Cells were seeded in 100 μL of complete medium per well in a black, flat-bottomed, 96-well tissue-culture-treated plate (Fisher Scientific, Loughborough, UK) at a density of 4000 cells/well and incubated under tissue culture conditions for 24 h. Cells were then treated by mixing in an additional 100 μL of drug/diluent control in complete medium to give final concentrations of 10 μM–1 pM. DMSO was used as a vehicle control, and as a positive toxic control, staurosporine was added at a final concentration of 10 μM. Cells were then incubated for 48 h under tissue culture conditions before the treatments were replaced with fresh media before performing the CellTiter Blue assay (Promega, Southampton, UK) was performed following the manufacturer's instructions. […]

The next series has as its system Y2649 OE CYP51 F1 RaCPR. Put plainly: MIC80 determination, strain Y2649. It counts as cell-based, S. cerevisiae. Conditions: Saccharomyces cerevisiae. As to the method:
as §2

A further series relates to Y525 OE CaMDR1a. Put plainly: MIC80 determination, strain Y525. The class given is cell-based, S. cerevisiae. Conditions: Saccharomyces cerevisiae, 48 h, pH 6.8. The procedure: as §2
Another series has as its system Y2721 OE CpCYP51. Put plainly: MIC80 determination, strain Y2721. It counts as cell-based, S. cerevisiae. The settings on record: Saccharomyces cerevisiae. As to the method:
as §2

In series [4] the target is T1, CaCYP51 Y132H + K143R. Conditions: footnote b; ref number not given; cited from earlier work.
Another series relates to Y2301 OE ScCYP51 Y140F. Put plainly: MIC80 determination, strain Y2301. The class given is cell-based, S. cerevisiae. The settings on record: Saccharomyces cerevisiae, 48 h, pH 6.8. As to the method: as §2
The next series has as its system 2711 CnCYP51 OE CnCPR. Put plainly: MIC80 determination, strain 2711. The class given is cell-based, S. cerevisiae. Conditions: Saccharomyces cerevisiae. The procedure:
as §2

The next series concerns the target CYP3A4 (Homo sapiens, UniProt P08684). On the set-up: method as in numbers not given. The settings on record: literature values for azole antifungals; ref numbers not given; cited from earlier work.

T1 sequence (P10613 whole entry Y132H/K143R): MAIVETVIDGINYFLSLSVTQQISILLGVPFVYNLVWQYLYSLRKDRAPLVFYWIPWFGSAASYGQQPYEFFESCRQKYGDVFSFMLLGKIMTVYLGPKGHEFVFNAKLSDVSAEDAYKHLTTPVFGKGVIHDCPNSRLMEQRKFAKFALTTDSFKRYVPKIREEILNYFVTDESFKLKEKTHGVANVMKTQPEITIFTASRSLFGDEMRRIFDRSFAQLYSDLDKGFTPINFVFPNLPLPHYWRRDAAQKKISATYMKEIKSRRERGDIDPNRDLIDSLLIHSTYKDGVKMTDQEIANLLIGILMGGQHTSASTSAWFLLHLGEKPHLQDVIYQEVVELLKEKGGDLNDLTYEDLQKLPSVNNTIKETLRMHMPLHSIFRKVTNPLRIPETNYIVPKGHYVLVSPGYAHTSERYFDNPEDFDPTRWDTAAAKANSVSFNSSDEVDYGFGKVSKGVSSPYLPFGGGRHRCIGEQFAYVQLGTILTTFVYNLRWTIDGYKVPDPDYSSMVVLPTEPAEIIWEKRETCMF
Chain of CYP3A4 (P08684 whole entry): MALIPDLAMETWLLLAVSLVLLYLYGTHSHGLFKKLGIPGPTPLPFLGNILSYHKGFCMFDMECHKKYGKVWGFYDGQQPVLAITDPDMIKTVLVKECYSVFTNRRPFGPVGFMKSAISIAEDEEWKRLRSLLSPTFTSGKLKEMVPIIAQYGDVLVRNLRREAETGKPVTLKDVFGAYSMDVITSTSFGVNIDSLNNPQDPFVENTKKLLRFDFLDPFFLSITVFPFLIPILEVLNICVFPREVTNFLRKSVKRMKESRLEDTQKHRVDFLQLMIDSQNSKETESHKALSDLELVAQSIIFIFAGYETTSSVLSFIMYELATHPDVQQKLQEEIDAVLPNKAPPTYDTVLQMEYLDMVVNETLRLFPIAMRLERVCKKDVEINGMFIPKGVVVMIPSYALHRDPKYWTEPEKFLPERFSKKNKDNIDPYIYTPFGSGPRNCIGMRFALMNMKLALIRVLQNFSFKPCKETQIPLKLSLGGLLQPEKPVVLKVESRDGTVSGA
Chain of wild-type CaCYP51 (P10613 whole entry): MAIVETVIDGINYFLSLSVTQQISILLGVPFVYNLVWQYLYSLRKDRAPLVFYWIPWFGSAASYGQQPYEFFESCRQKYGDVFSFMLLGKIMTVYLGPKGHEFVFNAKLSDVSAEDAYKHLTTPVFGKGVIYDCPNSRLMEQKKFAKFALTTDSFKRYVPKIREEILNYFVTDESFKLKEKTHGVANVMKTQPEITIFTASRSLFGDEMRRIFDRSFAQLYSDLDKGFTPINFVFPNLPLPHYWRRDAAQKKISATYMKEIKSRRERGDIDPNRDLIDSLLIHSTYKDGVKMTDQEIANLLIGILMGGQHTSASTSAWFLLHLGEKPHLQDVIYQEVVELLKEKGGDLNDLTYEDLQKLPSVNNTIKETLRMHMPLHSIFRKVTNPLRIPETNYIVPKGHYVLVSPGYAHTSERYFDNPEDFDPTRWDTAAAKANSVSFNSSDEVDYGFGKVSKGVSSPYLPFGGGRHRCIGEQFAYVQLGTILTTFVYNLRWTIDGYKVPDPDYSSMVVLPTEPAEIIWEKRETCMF

As to `OC(Cn1cncn1)(Cn1cncn1)c1ccc(F)cc1F` [FLC, fluconazole, reference compound], the half-inhibitory concentration (IC50) at wild-type CaCYP51 was 335 ± 17 nM; at CaCYP51 Y132H + K143R [1], 25700 ± 3550 nM; on CaCYP51 Y132F it was 606 ± 66 nM.

Turning to `CC[C@@H]([C@H](C)O)n1ncn(-c2ccc(N3CCN(c4ccc(OC[C@@H]5CO[C@@](Cn6cncn6)(c6ccc(F)cc6F)C5)cc4)CC3)cc2)c1=O` [PCZ, posaconazole, reference compound], the MIC80 in the series with Y2411 Endog. ScCYP51 amounted to 0.097 ± 0.04 µM; in the series with Y433 OE CgCDR1, 23.8 µM; in the series on Y2651 OE CYP51 F5 RaCPR, 0.054 ± 0.011 µM; in series [2], 0.033 ± 0.014 µM; in the series on Y2374 OE CgCYP51 it was 0.332 µM; in the series with Y2459 OE CaCYP51 CaCpr it was 0.22 ± 0.07 µM. Also, the MIC80 was determined as 0.07 µM in the series with Y1; 0.135 ± 0.058 µM with Y2716 OE CpCYP51 Y132F; 0.53 µM in the series on Y611 FHB3; 0.096 ± 0.003 µM with Y2765 OE CauMDR1; 0.196 ± 0.022 µM in the series with Y2767 OE CauCYP51; 0.073 µM in the series with Y71 SC5314. The MIC80 in the series with Y2768 OE CauCYP51 Y132F was 0.168 ± 0.006 µM; in the series on Y610 FHB1, 0.151 ± 0.016 µM; in the series with Y2300 OE ScCYP51, 2 ± 0.05 µM; in the series on Y2513 OE ScCYP51 Y140H it was 0.147 ± 0.057 µM; with Y2769 OE CauCYP51 K143R, 0.117 ± 0.005 µM; with Y570 OE CaCDR1B, above 25 µM. Further, the MIC80 in series [3] is 0.07 ± 0.024 µM; in the series with Y2766 OE CauCDR1, 0.971 ± 0.049 µM; in the series with Y2649 OE CYP51 F1 RaCPR, 0.1 µM; with Y525 OE CaMDR1a it was 0.218 µM; in the series with Y2721 OE CpCYP51, 0.122 ± 0.037 µM; in the series with Y2301 OE ScCYP51 Y140F it was 0.191 ± 0.041 µM. The MIC80 in the series on 2711 CnCYP51 OE CnCPR turned out to be 0.035 ± 0.015 µM. For the same compound, the minimal inhibitory concentration (MIC) with C. albicans was at most 0.03 µg/mL. In addition, the “cell viability (tolerance in words)” value in the series on MCF-10A cells was “no difference observed”. The 50% inhibitory concentration (IC50) at CaCYP51 Y132F is 343 ± 20 nM; on CaCYP51 Y132H + K143R [4] it was 196 ± 7 nM.

Consider `O[C@@](Cn1cnnn1)(c1ccc(F)cc1F)C(F)(F)c1ccc(-c2ccc(OCC(F)(F)F)cc2)cn1` [VT-1161, Oteseconazole], for which, on CYP3A4, the IC50 was 140000 nM.

As a reminder, the IC50 is the concentration that gives 50% inhibition. As usually defined, the MIC80 is the lowest concentration that inhibits either 80% of growth or 80% of the strains tested, depending on the study. As a reminder, the MIC is the least concentration at which growth counts as inhibited.
